From patent US4764460A, “Recombinant sigma NS protein” (priority 1985, dated 1988)
Where two headings read alike, the source gives them in different places.

Biological target: T1, rσNS (Reovirus type 3, UniProt P03526)
T1 construct: made in house; host or cells: E. coli RR1 (pRK248cIts) carrying pRC23-S3
Experiment: Inhibition of binding of reovirus ssRNA to rσNS by ribonucleotides
Conditions: for remaining activity at 10000 µM: ribonucleotide 10 mM
Protocol: In a preliminary experiment it was noticed that the capacity of rσNS to bind (ss) RNAs was abolished if all four ribonucleotides were included in the reaction mixture. The ability of each of the four ribonucleotides (ATP, CTP, GTP, and UTP) to inhibit binding was then examined. […] With the amount of rσNS used in these experiments (130 ng per reaction) GTP inhibition was evident between 0.5 mM and 1 mM (Table 3). The other three ribonucleotides caused little interference with binding even at concentrations of 10 mM (Table 3). This was an important observation for developing σNS as a concentrator of (ss) RNA in test samples to be used in hybridization probe assays. […] The isolated (ss) RNA can then be treated with the hybridization probe in a conventional manner. Obviously since the binding of the σNS protein with the (ss) RNA is non-specific, the specificity of the assay is fully determined by the specificity of the hybridization probe for the desired RNA being assayed.

[1] = read-out: % of [32P]-labeled reovirus ssRNA retained on nitrocellulose membrane, expressed as percentage of control, EXP. 1, ribonucleotide 2 mM (mixture 2 mM each), 130 ng rσNS per reaction
[2] = read-out: % of [32P]-labeled reovirus ssRNA retained on nitrocellulose membrane, expressed as percentage of control, EXP. 2

T1 sequence (P03526 whole entry): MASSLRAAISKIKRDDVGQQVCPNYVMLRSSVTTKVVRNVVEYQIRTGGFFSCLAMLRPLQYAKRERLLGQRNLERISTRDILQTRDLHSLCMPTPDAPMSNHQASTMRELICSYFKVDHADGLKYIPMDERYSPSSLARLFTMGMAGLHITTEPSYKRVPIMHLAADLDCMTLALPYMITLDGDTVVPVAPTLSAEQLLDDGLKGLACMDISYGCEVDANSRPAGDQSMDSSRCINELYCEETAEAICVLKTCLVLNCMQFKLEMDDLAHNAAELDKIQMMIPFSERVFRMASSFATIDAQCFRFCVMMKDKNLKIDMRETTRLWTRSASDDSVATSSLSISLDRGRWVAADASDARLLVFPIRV

`Nc1ncnc2c1ncn2[C@@H]1O[C@H](COP(=O)(O)OP(=O)(O)OP(=O)(O)O)[C@@H](O)[C@H]1O` [ATP] showed a remaining activity at 2000 µM [1] of 61% and a remaining activity at 10000 µM [2] of 95%.

`Nc1ccn([C@@H]2O[C@H](COP(=O)(O)OP(=O)(O)OP(=O)(O)O)[C@@H](O)[C@H]2O)c(=O)n1` [CTP] gave a remaining activity at 2000 µM [1] of 58% and a remaining activity at 10000 µM [2] of 81%.

Compound `Nc1nc2c(ncn2[C@@H]2O[C@H](COP(=O)(O)OP(=O)(O)OP(=O)(O)O)[C@@H](O)[C@H]2O)c(=O)[nH]1` [GTP] has a remaining activity at 2000 µM [1] of 5%, a remaining activity at 100 µM (read-out: % of [32P]-labeled reovirus ssRNA retained on nitrocellulose membrane, expressed as percentage of control, EXP. 2, ribonucleotide 0.1 mM) of 93% and a remaining activity at 500 µM (read-out: % of [32P]-labeled reovirus ssRNA retained on nitrocellulose membrane, expressed as percentage of control, EXP. 2, ribonucleotide 0.5 mM) of 95%. It also gave a remaining activity at 1000 µM (read-out: % of [32P]-labeled reovirus ssRNA retained on nitrocellulose membrane, expressed as percentage of control, EXP. 2, ribonucleotide 1 mM) of 29%, a remaining activity at 2000 µM (read-out: % of [32P]-labeled reovirus ssRNA retained on nitrocellulose membrane, expressed as percentage of control, EXP. 2, ribonucleotide 2 mM) of 15% and a remaining activity at 10000 µM [2] of 0%.

`O=c1ccn([C@@H]2O[C@H](COP(=O)(O)OP(=O)(O)OP(=O)(O)O)[C@@H](O)[C@H]2O)c(=O)[nH]1` [UTP] was tested, and the remaining activity at 2000 µM [1] was 59% and the remaining activity at 10000 µM [2] was 68%.
